Measurements reported in patent US20150216182A1, “COMPOSITIONS AND METHODS OF THE ATTRACTION AND REPULSION OF INSECTS” (Olfactor Laboratories, Inc., priority 2012, published 2015).
Structures can show the parent of a compound that is named as a salt. Where two headings read alike, the source gives them in different places.

Legend:
[1] = system: bed bugs (Cimex lectularius); test: bed bug repellency assay; assay type: in vivo; conditions: for % Rep (bed bug repellency): compound or combination on filter paper harborage, ten bed bugs
Description: Compounds and combinations of compounds of the present invention were assayed for their ability to repel bed bugs (Cimex lectularius) using a bed bug repellency assay. This assay takes advantage of the bed bug's natural tendency to seek harborage. Two petri dishes were obtained and the inner areas of each were sanded down (leaving the perimeter smooth.) Talc was applied on the perimeter and on the inside walls of the petri dishes with a small paint brush to prevent bed bugs from escaping. A cut off top portion of a solo bathroom cup was placed upside down in the center of one petri dish. A large plastic secondary container was gathered and a paper towel was laid down inside the bottom. The petri dish was then placed inside and ten bed bugs were placed inside the cut off portion of the solo cup. Next, two pieces of filter paper were cut down the middle to yield 4 equally sized halves. 3 pieces were placed inside a glass dish ([…]) and the remaining piece was placed in a separate dish. All 4 pieces were folded down the middle to create a “tent” or “harborage” when laid such that the folded crease faced up. 100 microliters of isopropyl alcohol was pipetted into 3 pieces of filter paper (all housed in the first glass dish.) In a separate 4 ml vial, 90 microliters of isopropyl alcohol was combined and vortexed with 10 microliters of the compound or compound combination being tested. 100 microliters of this solution [comprising a total of 100 mg of compound(s)] was pipetted onto the filter paper in the separate dish. All filter papers were then allowed to dry. Once dry, experiments were conducted first with two filter paper halves comprising only the isopropyl alcohol (control experiment) and then with the remaining filter paper halves [one with only isopropyl alcohol and one comprising the test compound(s).] Filter paper halves were placed on opposing sides of experimental petri dishes and bed bugs were allowed to move freely within the dishes for 5 minutes. Movement of bed bugs beneath each filter paper tent was recorded. […] In the Table, “Rep” refers to repellency and “Cmpd” refers to compound.

[2] = system: larvae; test: larvicidal activity assay; assay type: in vivo; conditions: for pest or weed control at 0.25 %: read-out: % Lethality with 0.25% compound conc.; for pest or weed control at 100 ppm: read-out: % Lethality at 100 ppm
Description: A 6-well plate (Corning Life Sciences, Tewksbury, Mass.) is used to test a compound's larvicidal activity. […] After a 24 hour exposure, the number of dead larvae are counted and recorded.
The results are presented in Table 17 as % lethality (the number of dead larvae divided by the total number of larvae).

[3] = system: cpA neurons; test: extracellular single-sensillum electrophysiology: activation of cpA neuronal activity; conditions: for Class: Table 6, single compounds, increase over baseline cpA neuronal activity
[4] = system: female mosquitoes; test: whole plant or invertebrate; conditions: 2 h; for mortality at 200 µg/mL: read-out: % mortality with 0.2 mg/ml; for mortality at 2000 µg/mL: read-out: % mortality with 2 mg/ml
[5] = system: cpA neurons; test: extracellular single-sensillum electrophysiology: inhibition of CO2-responsive (cpA) neuronal activity; conditions: for Class: Table 10, single compounds, percent reduction in cpA activity compared to baseline; for Class (inhibitor class of the individual component): Inh = inhibitor
[6] = 0.25% compound, 24 hour exposure, dead larvae / total larvae
[7] = 100 ppm compound, 24 hour exposure, dead larvae / total larvae
[8] = Table 13, single component alone

`CC1OCCC1=O` (stereo not drawn) [OLI0004, 2-methyltetrahydrofuran-3-one] was tested, and the “% Rep (bed bug repellency)” value [1] was 37%, the pest or weed control at 0.25 % [2, 6] was 0% and the pest or weed control at 100 ppm [2, 7] was 0%. The Class [3] was “Strong Activator (strong activators yield an increase in activity that is >60 spk/sec over baseline neuronal activity)”, the mortality at 200 µg/mL [4] was 0% and the mortality at 2000 µg/mL [4] was 0%.

`CCc1ccc(O)cc1` [OLI0005, 4-ethylphenol] was tested, and the “% Rep (bed bug repellency)” value [1] was 100%, the pest or weed control at 100 ppm ([2]; 24 h) was 100% and the pest or weed control at 0.25 % ([2]; 24 h) was 100%. The Class [3] was “Strong Activator (strong activators yield an increase in activity that is >60 spk/sec over baseline neuronal activity)”, the mortality at 200 µg/mL [4] was 0% and the mortality at 2000 µg/mL [4] was 100%.

With `Cc1ccc(C=O)o1` [OLI0006, 5-methyl furfural] the “% Rep (bed bug repellency)” value [1] was 47%, the pest or weed control at 0.25 % [2, 6] was 100% and the pest or weed control at 100 ppm [2, 7] was 0%. The Class [3] was “Strong Activator (strong activators yield an increase in activity that is >60 spk/sec over baseline neuronal activity)”, the mortality at 200 µg/mL [4] was 0% and the mortality at 2000 µg/mL [4] was 0%.

In the case of `CCCCOC=O` [OLI0007, butyl formate], the “% Rep (bed bug repellency)” value [1] is reported as 6%, the pest or weed control at 100 ppm ([2]; 24 h) is reported as 0% and the pest or weed control at 0.25 % ([2]; 24 h) is reported as 0%. For the same compound, the Class [3] was “Strong Activator (strong activators yield an increase in activity that is >60 spk/sec over baseline neuronal activity)”, the mortality at 200 µg/mL [4] was 0% and the mortality at 2000 µg/mL [4] was 0%.

With `CCOC(=O)c1ccco1` [OLI0009, ethyl 2-furoate] the “% Rep (bed bug repellency)” value [1] was 41%, the pest or weed control at 0.25 % [2, 6] was 100% and the pest or weed control at 100 ppm [2, 7] was 0%. The Class [3] was “Strong Activator (strong activators yield an increase in activity that is >60 spk/sec over baseline neuronal activity)”, the mortality at 200 µg/mL [4] was 0% and the mortality at 2000 µg/mL [4] was 0%.

For `CCOC(=O)C(C)O` (stereo not drawn) [OLI0010, ethyllactate], the “% Rep (bed bug repellency)” value [1] was 37%, the pest or weed control at 0.25 % [2, 6] was 0% and the pest or weed control at 100 ppm [2, 7] was 0%. The Class [3] was “Strong Activator (strong activators yield an increase in activity that is >60 spk/sec over baseline neuronal activity)”, the mortality at 200 µg/mL [4] was 0% and the mortality at 2000 µg/mL [4] was 0%.

With `COc1ccccc1O` [OLI0012, guaiacol] the “% Rep (bed bug repellency)” value [1] was 100%, the pest or weed control at 0.25 % [2, 6] was 100% and the pest or weed control at 100 ppm [2, 7] was 0%. The Class [3] was “Strong Activator (strong activators yield an increase in activity that is >60 spk/sec over baseline neuronal activity)”, the mortality at 200 µg/mL [4] was 0% and the mortality at 2000 µg/mL [4] was 0%.

For `O=CCc1ccccc1` [OLI0028, phenylacetaldehyde], the “% Rep (bed bug repellency)” value [1] was 50%, the Class [3] was “Moderate Activator (Moderate activators yield an increase in neuronal activity that is between 40 and 60 spk/sec over baseline neuronal activity)” and the “Comp B Class” value ([3]; Table 9, component B tested individually) was “Mod”. For the same compound, the mortality at 200 µg/mL [4] was 0% and the mortality at 2000 µg/mL [4] was 0%.

`CC/C=C\CCOC(C)=O` [OLI0073, cis-3-hexenyl acetate] showed a pest or weed control at 0.25 % [2, 6] of 95%, a pest or weed control at 100 ppm [2, 7] of 0% and a mortality at 200 µg/mL [4] of 0%. The mortality at 2000 µg/mL [4] was 0%, the Class [5] was “Moderate Inhibitor (moderate inhibitors (reducing activity by 40-60%))” and the “Class (inhibitor class of the individual component)” value [5, 8] was “Mod”.

In the case of `CCC(=O)OCCc1ccccc1` [OLI0076, Phenethyl propionate], the pest or weed control at 0.25 % [2, 6] is reported as 100%, the pest or weed control at 100 ppm [2, 7] is reported as 0% and the mortality at 200 µg/mL [4] is reported as 0%. For the same compound, the mortality at 2000 µg/mL [4] was 100%, the Class [5] was “Moderate Inhibitor (moderate inhibitors (reducing activity by 40-60%))” and the “Class (inhibitor class of the individual component)” value [5, 8] was “Mod”. For the same compound, the “Class (inhibitor class of the individual component)” value ([5]; Table 16, single component alone) was “Mod” and the “inhibitor class of single compound” value ([5]; single compound) was “moderate inhibitor (40-60% reduction in neuronal activity as compared to baseline activity of the neuron)”.

In the case of `CC12CCC(CC1)C(C)(C)O2` [OLI0087, Eucalyptol], the Class [5] is reported as “Mild Inhibitor (mild inhibitors (reducing activity by 20-40%))”.

In the case of `CC(=O)CC/C=C(\C)CCC=C(C)C` [OLI0089, Geranylacetone], the Class [5] is reported as “Mild Inhibitor (mild inhibitors (reducing activity by 20-40%))” and the “Class (inhibitor class of the individual component)” value [5, 8] is reported as “Mild”.

`CCCC(=O)OC/C=C(\C)CCC=C(C)C` [OLI0090, Geranylbutyrate] was tested, and the Class [5] was “Mild Inhibitor (mild inhibitors (reducing activity by 20-40%))”.

`CCCCC1OC(=O)CC1C` (stereo not drawn) [OLI0094, whiskey lactone] was tested, and the Class [5] was “Mild Inhibitor (mild inhibitors (reducing activity by 20-40%))”.

In the case of `COc1ccc(C=O)cc1OC` [OLI0095, Veratraldehyde], the Class [5] is reported as “Mild Inhibitor (mild inhibitors (reducing activity by 20-40%))” and the “Class (inhibitor class of the individual component)” value [5, 8] is reported as “Mild”.

With `C=CCOC(=O)C=Cc1ccccc1` [OLI0104, allyl cinnamate] the “% Rep (bed bug repellency)” value [1] was 54%, the pest or weed control at 0.25 % [2, 6] was 100% and the pest or weed control at 100 ppm [2, 7] was 15%. It also gave a mortality at 200 µg/mL [4] of 0% and a mortality at 2000 µg/mL [4] of 45%.

In the case of `CCC(=O)OC/C=C/c1ccccc1` [OLI0105, trans-cinnamyl propionate], the “% Rep (bed bug repellency)” value [1] is reported as 35%, the pest or weed control at 0.25 % [2, 6] is reported as 100% and the pest or weed control at 100 ppm [2, 7] is reported as 0%. For the same compound, the mortality at 200 µg/mL [4] was 0% and the mortality at 2000 µg/mL [4] was 85%.

In the case of `O=COCC=Cc1ccccc1` [OLI0107, cinnamyl formate], the “% Rep (bed bug repellency)” value [1] is reported as 100%, the pest or weed control at 0.25 % [2, 6] is reported as 100% and the pest or weed control at 100 ppm [2, 7] is reported as 0%. The mortality at 200 µg/mL [4] was 0% and the mortality at 2000 µg/mL [4] was 100%.

For `CCC(=O)OCC=Cc1ccccc1` [OLI0109, cinnamyl propionate], the “% Rep (bed bug repellency)” value [1] was 41%, the pest or weed control at 0.25 % [2, 6] was 100% and the pest or weed control at 100 ppm [2, 7] was 0%. For the same compound, the mortality at 200 µg/mL [4] was 0% and the mortality at 2000 µg/mL [4] was 100%.

With `CCOC(=O)C=Cc1ccccc1` [OLI0110, ethyl cinnamate] the “% Rep (bed bug repellency)” value [1] was 59%, the pest or weed control at 0.25 % [2, 6] was 100% and the pest or weed control at 100 ppm [2, 7] was 0%. It also gave a mortality at 200 µg/mL [4] of 0% and a mortality at 2000 µg/mL [4] of 100%.

For `COC(=O)C=Cc1ccccc1` [OLI0113, methyl cinnamate], the “% Rep (bed bug repellency)” value [1] was 68%, the pest or weed control at 0.25 % [2, 6] was 100% and the pest or weed control at 100 ppm [2, 7] was 0%. It also gave a mortality at 200 µg/mL [4] of 0% and a mortality at 2000 µg/mL [4] of 100%.

In the case of `COC(=O)/C=C/c1ccccc1` [OLI0114, methyl trans-cinnamate], the “% Rep (bed bug repellency)” value [1] is reported as 70%, the pest or weed control at 0.25 % [2, 6] is reported as 100% and the pest or weed control at 100 ppm [2, 7] is reported as 0%. The mortality at 200 µg/mL [4] was 0% and the mortality at 2000 µg/mL [4] was 100%.

In the case of `CC1CCC(C(C)C)C(O)C1` (stereo not drawn) [OLI0115, Menthol], the “% Rep (bed bug repellency)” value [1] is reported as 60%, the pest or weed control at 100 ppm ([2]; 24 h) is reported as 0% and the pest or weed control at 0.25 % ([2]; 24 h) is reported as 100%. For the same compound, the mortality at 200 µg/mL [4] was 0% and the mortality at 2000 µg/mL [4] was 0%.

`CCCCCCOC(=O)CCC` [OLI0119, hexyl butyrate] was tested, and the “% Rep (bed bug repellency)” value [1] was 59%, the pest or weed control at 0.25 % [2, 6] was 15% and the pest or weed control at 100 ppm [2, 7] was 0%. The mortality at 200 µg/mL [4] was 0% and the mortality at 2000 µg/mL [4] was 0%.

In the case of `O=C(C=Cc1ccccc1)OCc1ccccc1` [OLI0120, benzyl cinnamate], the “% Rep (bed bug repellency)” value [1] is reported as 21%, the pest or weed control at 0.25 % [2, 6] is reported as 0% and the pest or weed control at 100 ppm [2, 7] is reported as 0%. For the same compound, the mortality at 200 µg/mL [4] was 0% and the mortality at 2000 µg/mL [4] was 0%.

For `O=CCc1ccccc1` [OLI0121], the “% Rep (bed bug repellency)” value [1] was 100%.

With `CC(C)=CCC/C(C)=C/CO` [geraniol] the “ability to repel bed bugs” value ([1]; 100 microliters solution on filter paper tent, 5 minutes) was “surprisingly strong ability to repel bed bugs”.
